The text below walks through data of publication PMC2841147, “The inhaled phosphodiesterase 4 inhibitor GSK256066 reduces allergen challenge responses in asthma” (Respiratory Research, 2010).

Like-named read-outs stand apart in the source and are kept apart here.

Data set [1] relates to steroid naive atopic asthmatics. Briefly: Inhaled allergen challenge (EAR and LAR) after 7 days treatment. The following applies: inhaled 87.5 μg once daily for 7 days. It is filed as in vivo, human. The procedure:
(§1) This was a two centre, double-blind, randomised, placebo controlled, cross-over study. Eligible subjects were randomised to receive GSK256066 87.5 μg or matching placebo using an Accuhaler™ once daily for 7 days - see Fig 1. The washout period was 14 - 21 days between treatment periods. Dosing was performed under supervision at the sites on Day 1 and Day 7. On days 2-6 subjects were instructed to take the study medication at the same time of day, and were required to complete a diary card to document the time that medication was taken. Heart rate, blood pressure, ECGs, FEV1 and exhaled nitric oxide (FeNO) were measured pre-dose on days 1 and 7, and at 1 hr post-dose. On day 7, an inhaled allergen challenge was subsequently performed after the 1 hour post-dose FEV1 and FeNO measurements. Methacholine challenge was then performed at 24 hours post allergen challenge. Adverse events and beta agonist use were monitored throughout the study with the aid of diary cards.
Bronchial challenges were performed as we have previously described using a Mefar Dosimeter (Mefar-Bologna). Allergen for skin prick tests (Soluprick SQ, Alk Abelló (UK) Ltd) was stored at 4°C; each subject was assessed for sensitivity to house dust mite, cat, grass pollen, and positive and negative controls. The allergen for inhalation was selected according to the largest skin test wheal (positive >3 mm) and clinical history. Fresh solutions of allergen were made up in 0.9% saline in doubling concentrations from 250 SQ-U/ml to 32 000 SQ-U/ml. At screening, incremental doses of allergen were inhaled until an early asthmatic response (EAR) was observed, defined as a fall in FEV1 of ≥ 20% from the post saline value, on at least one occasion, between 5 and 30 minutes after the final concentration of allergen. The late asthmatic response (LAR) was defined as a fall in FEV1 of ≥ 15% from the post saline value, on at least three occasions, two of which must be consecutive, between 4 and 10 hours after the final concentration of allergen. During the treatment periods, the total dose of allergen required to cause an EAR and LAR was administered as a single bolus dose.
Minimum LAR was derived as the minimum FEV1 value over 4-10 hrs post allergen challenge. Minimum EAR was derived as the minimum FEV1 over 0-2 hrs post allergen challenge. Weighted mean LAR and EAR endpoints were derived by calculating the AUC over the relevant time interval using the linear trapezoidal rule and dividing by the time interval. […] Day 7 FEV1 data (pre-dose and 1 h post-dose) were also analysed using a mixed effects model, adjusting for the fixed effects treatment, period and Day 1 pre-dose FEV1 and the random effect subject. […]

Data set [2] shares this test system. Nature of the data set: Methacholine challenge 24 hours post allergen challenge. The data set is classed as in vivo, human. The method, then:
as §1, with “cards. […]” for “cards.”
Minimum LAR was derived as the minimum FEV1 value over 4-10 hrs post allergen challenge. […] Day 7 FEV1 data (pre-dose and 1 h post-dose) were also analysed using a mixed effects model, adjusting for the fixed effects treatment, period and Day 1 pre-dose FEV1 and the random effect subject. […] FeNO change from baseline ratio at all time points were analysed following a loge-transformation to compare GSK256066 with placebo. […]

Data set [3] has the same test system. Briefly: Lung function (FEV1) pre-dose and 1 hr post-dose. The data set is classed as in vivo, human. To be noted: for FEV1: mean; for FEV1 adjusted treatment difference GSK256066 vs placebo: adjusted mean (95% confidence intervals). The procedure:
as §1
(§2) Minimum LAR was derived as the minimum FEV1 value over 4-10 hrs post allergen challenge. Minimum EAR was derived as the minimum FEV1 over 0-2 hrs post allergen challenge. Weighted mean LAR and EAR endpoints were derived by calculating the AUC over the relevant time interval using the linear trapezoidal rule and dividing by the time interval. The sample size was based on a power calculation using our previous allergen challenge data; in order to detect a 50% attenuation of the minimum LAR, with 90% power at the two-sided 5% significance level, 23 evaluable were required. Statistical analysis was performed on each of the absolute change from baseline LAR and EAR endpoints to compare GSK256066 with placebo. A mixed effects model was fitted with the factors treatment, period and Day 7 post-saline FEV1 as fixed effects and subject as a random effect. Absolute change from post-saline FEV1 data over planned relative time were obtained from a repeated measures statistical analysis, adjusting for the terms of period, treatment group, period-level post-saline baseline, subject-level post-saline baseline, planned relative time, treatment group by planned relative time interaction and period-level post-saline baseline by planned relative time interaction as fixed effects and subject as a random effect. Day 7 FEV1 data (pre-dose and 1 h post-dose) were also analysed using a mixed effects model, adjusting for the fixed effects treatment, period and Day 1 pre-dose FEV1 and the random effect subject. Statistical analysis was performed on the log2-transformed values of the provocative concentration of methacholine required to produce a 20% reduction in FEV1 (PC20) to compare GSK256066 with placebo. A mixed effects model was fitted with the factors treatment and period treated as fixed effects and subject as a random effect. FeNO change from baseline ratio at all time points were analysed following a loge-transformation to compare GSK256066 with placebo. A mixed effects model was fitted with the fixed effects period, treatment group, subject-level loge-transformed baseline, period-level loge-transformed baseline, planned relative time, treatment group by planned relative time interaction term and period-level loge-transformed baseline by planned relative time interaction term and the random effect subject.

The test system is the same in data set [4]. Briefly: Exhaled nitric oxide (FeNO). The data set is classed as in vivo, human. To be noted: for Exhaled nitric oxide: mean. The procedure: as §1
FeNO was measured using the Ecomedics AG analyser CLD 88 at a flow of 50 ml/s. Three acceptable readings were recorded from each subject and the mean was used for analysis.
as §2, with “Statistical analysis was performed on the log2-transformed values of the provocative concentration of methacholine required to produce a 20% reduction in FEV1 (PC20) to compare GSK256066 with placebo. A mixed effects model was fitted with the factors treatment and period treated as fixed effects and subject as a random effect.” left out, “A mixed effects model was fitted with the fixed effects period, treatment group, subject-level loge-transformed baseline, period-level loge-transformed baseline, planned relative time, treatment group by planned relative time interaction term and period-level loge-transformed baseline by planned relative time interaction term and the random effect subject.” left out

Data set [5] can be described thus: Plasma pharmacokinetics after inhalation (HPLC/MS/MS). It is filed as in vivo, human. To be noted: for Tlast / Tmax: median (range); for AUC(0-t): 87.5 ug. The procedure: On days 1 and 7, blood samples were collected at pre-dose, 10 min, 30 min, 45 min and 1, 2, 3, 4, 6, 8, 10, 11, 12 and 24 hrs post dose for measurement of the levels of GSK256066 in plasma. […] These pharmacokinetic analyses were performed by protein precipitation, followed by HPLC/MS/MS. The lower limit of quantification (LLOQ) for GSK256066 and GSK614917 was 5 pg/mL, with an upper limit of quantification of 2000 pg/mL
Values for the following pharmacokinetic were estimated directly from raw plasma concentration data: maximum plasma concentration (Cmax), time of maximum observed concentration (Tmax), and time of the last observable concentration (Tlast). Area under the plasma concentration-time curve from time zero to Tlast (AUC (0-t)) was estimated for subjects with at least 3 consecutive observable concentration values with the log up/linear down trapezoidal method using Winnonlin professional version 5.2 (Pharsight Corporation, Cary, NC, USA).

For data set [6], the system named is steroid naive atopic asthmatics. Nature of the data set: Safety and tolerability (adverse events). It is filed as in vivo, human. The following applies: inhaled 87.5 mcg once per day for 7 days. The procedure: as §1
The subject of a further data set is PDE4. To be noted: cited from earlier work.
For another data set, the system named is patients with COPD. More on the design: method as in PMID 19213793. To be noted: inhaled, after 6 weeks of treatment; cited from earlier work.
Details of data set [7]: method as in PMID 17192499. The following applies: cited from earlier work.
For another data set, the system named is asthmatic subjects. Also on record: method as in PMID 16083782. To be noted: orally administered; cited from earlier work.

In general, AUC(0-t) refers to exposure summed from dosing to a finite time, without extrapolation to infinity. For the molecule `COc1cccc(Nc2c(C(N)=O)cnc3c(C)cc(S(=O)(=O)c4cccc(C(=O)N(C)C)c4)cc23)c1` [GSK256066], the “EAR: inhibition of the fall in weighted mean FEV1 compared to placebo” value in [1] (0-2 hrs post allergen, p = 0.014) worked out at 57.2%. Moreover, the “LAR: attenuation of the fall in weighted mean FEV1 compared to placebo” value in data set [1] (4-10 hrs post allergen, p = 0.005) is 34.3%. Further, in data set [1] (minimum FEV1 0-2 hrs post allergen, p = 0.014), the “EAR: inhibition of the fall in minimum FEV1 compared to placebo” value was found to be 40.9%. Besides, in [1] (minimum FEV1 4-10 hrs post allergen, p = 0.007), the “LAR: attenuation of the fall in minimum FEV1 compared to placebo” value turned out to be 26.2%. Besides, the “Methacholine PC20 doubling dose difference vs placebo, geometric mean (95% CI)” value in data set [2] is reported as -0.31 (-1.18 to 0.57). The “Methacholine PC20” value in data set [2] (after 7 days treatment, placebo 0.39) worked out at 0.31 mg/mL. For the same molecule, the figures for the FEV1 in data set [3] (Day 1 Pre-dose), in data set [3] (Day 7 1 hr post-dose) and in data set [3] (Day 7 Pre-dose) were 3.29 (2.88 to 3.69) L, 3.47 (3.04 to 3.90) L and 3.36 (2.94 to 3.79) L, respectively. For the same molecule, the “FEV1 adjusted treatment difference GSK256066 vs placebo” value is given as 0.09 (-0.08 to 0.27) L in data set [3] (Day 7 1 hr post-dose) and 0.09 (-0.03 to 0.20) L in data set [3] (Day 7 Pre-dose). Besides, the Exhaled nitric oxide is on record as 39.9 (31.0 to 51.3) ppb in [4] (Day 1 Pre-dose), 36.1 (28.1 to 46.3) ppb in data set [4] (Day 7 1 hr post-dose) and 34.7 (26.7 to 45.0) ppb in data set [4] (Day 7 Pre-dose). In data set [4] (Day 7 1 hr post-dose, adjusted mean (95% confidence intervals)), the “Exhaled nitric oxide adjusted treatment ratio GSK256066 vs placebo” value was 1.03 (0.88 to 1.20). Moreover, the “Subjects with plasma concentrations above the LLOQ” value in [5] (Day 1, LLOQ 5 pg/mL) is recorded as 18 out of 22; in [5] (Day 7, LLOQ 5 pg/mL), 17 out of 19. The Cmax in data set [5] (Day 1, inhaled 87.5 μg, plasma, geometric mean (CV%), N = 18) was 18.3 (68) Pg/mL; in data set [5] (Day 7, inhaled 87.5 μg once daily, plasma, geometric mean (CV%), n = 17), 17.3 (63) Pg/mL; in [5] (human, plasma, inhaled or intranasal, 87.5 μg, on both days 1 and 7, inhaled, read-out: Mean Cmax), less than 0.02 ng/mL. The Tlast in data set [5] (Day 1) is 3.0 (0.5-6.0) h; in [5] (Day 7), 4.0 (1.0-24) h. The “Subjects with drug levels below the LLOQ after 4 hrs post dose” value in data set [5] (Day 1, of the 22 subjects, LLOQ 5 pg/mL) was 18 subjects; in data set [5] (Day 7, LLOQ 5 pg/mL), 10 of the 19. Also, the “Subjects with levels above the LLOQ after 12 hrs” value in [5] (Day 7, LLOQ 5 pg/mL) was found to be 1 subject. The Tmax in data set [5] (Day 7) was 1.0 (0.17-11.0) h; in data set [5] (human, plasma, inhaled, 87.5 μg, Day 1, read-out: Tmax), 1 h. In data set [5] (days 1 and 7), the “Tlast range in this study” value is 0.5 to 24 h. In addition, the AUC(0-t) in data set [5] (human, plasma, inhaled or intranasal, Day 1, inhaled 87.5 μg, plasma, geometric mean (CV%), N = 18) came out at 0.0368 ng·h/mL; in data set [5] (human, plasma, inhaled or intranasal, Day 7, inhaled 87.5 μg once daily, plasma, geometric mean (CV%), n = 17), 0.0648 ng·h/mL. Further, the “Nausea and/or gastro-intestinal side effects” value in data set [6] is “lack of nausea and/or gastro-intestinal side effects”. In [6], the “Tolerability / adverse effects” value is “well tolerated”. The “Affinity and binding mode at PDE4” value in the data set on PDE4 was “very high affinity, slow- and tight-binding inhibitor”. Moreover, in the data set with PDE4, the “Selectivity for PDE4 over other PDEs such as 1, 2, 3, 5, 6 and 7” value is on record as “highly selective”.

Take `Cc1ccc(O)c(C(=O)N[C@H]2CC[C@@H](NC(=O)c3cc(F)cnc3Oc3ccc(F)c(F)c3)CC2)c1` [UK-500,001]: the “Effect on FEV1” value in the data set with patients with COPD is given as “no effect”.

On to `O=C(Nc1c(Cl)c[n+]([O-])cc1Cl)c1ccc(OC(F)F)c(OCC2CC2)c1` [roflumilast N-Oxide], for which the “Plasma levels of the active metabolite compared with roflumilast Cmax” value in [7] (after oral roflumilast) is reported as “even higher”.

Regarding `O=C(Nc1c(Cl)cncc1Cl)c1ccc(OC(F)F)c(OCC2CC2)c1` [roflumilast], in the data set with asthmatic subjects, the “Inhibition of the maximal fall in the EAR” value is 14% and the “Inhibition of the maximal fall in the LAR” value is on record as 33%. In addition, in [7] (administered orally), the “Mean Cmax” value is reported as “over 2,000 pg/ml”.
